Experimental data reported in US9487470B2, “4-((substituted phenyl) difluoromethyl) phenoxy carboxylic acid derivative, and preparation method and uses thereof” (Zhejiang Hisun Pharmaceutical Co., Ltd., priority 2012, dated 2016).

Experiments:
[1] = tested on: hyperlipoidemia model of Goldenhamsters (blood plasma TC, TG, HDL-C, LDL-C); assay: Pharmacological test group 1: effects on blood lipid levels of Goldenhamsters in a hyperlipoidemia model; assay type: in vivo
[2] = tested on: hyperlipoidemia model of Goldenhamsters (blood plasma TC, HDL-C, LDL-C); assay: Pharmacological test group 2: effects on blood lipid levels of Goldenhamsters in hyperlipoidemia model; assay type: in vivo; settings: for effect on HDL-C, in comparison with the results before administration (in words) / effect on LDL-C, in comparison with the results before administration (in words) / effect on TC, in comparison with the results before administration (in words): t test after vs before administration; for HDL-C, before administration / LDL-C, before administration / TC, before administration: baseline of the group before administration, high-lipid feed 2 weeks, 6 animals
Text: (§1) Animals: 120 male Goldenhamsters, aged 8 weeks, body weight 80-100 g, provided by Vital River Laboratories, Beijing.
Kits: The kits for total cholesterol (TC) and high density lipoprotein cholesterol (HDL-C) were provided by SYSMEX, and the kits for low density lipoprotein cholesterol (LDL-C) were provided by Shanghai Kehua Bio-engineering Co., Ltd.
(§2) Apparatus: SYSMEX Automatic Biochemistry Analyzer, Bechman centrifuge, Setoris balance.
(§3) The animals were acclimatized and fed for 1 week, ad lib, light cycle was 10 h/14 h, and then feeds with high lipid content were fed to the animals (formulation: 0.3% cholesterol, 20% palm oil, and 79.7% basic feeds). The animals were fed for 2 weeks, and were fasted at 4:00 pm on the 14th day (fasted for 16 h). On the 15th day, the animals were anaesthetized with ethyl ether, weighted, and then 0.5 ml blood was collected from vena orbitalis posterior. The blood was anticoagulated with heparin, and was centrifugated at 5000 rpm for 10 min. The blood plasma was taken, and the levels of TC, HDL-C, and LDL-C in blood plasma were determined using automatic biochemistry analyzer.
During the administration, feeds with high lipid content were continuously fed to the animals. The animals were fed for 1 week, and were fasted at 4:00 pm on the 7th day. On the 8th day, the animals were anaesthetized with ethyl ether, weighted, and then 0.5 ml blood was collected from vena orbitalis posterior. The blood was anticoagulated with heparin, and was centrifugated at 5000 rpm for 10 min. The blood plasma was taken, and the levels of TC, HDL-C, and LDL-C in blood plasma were determined using automatic biochemistry analyzer.
(§4) The results were represented by x±s, and t test was employed for comparing the results obtained before and after administration.

[3] = tested on: hyperlipoidemia model of Goldenhamsters (blood plasma TC, TG, HDL-C, LDL-C); assay: Pharmacodynamic test group 3: effects on blood lipid levels of Goldenhamsters in a hyperlipoidemia model; assay type: in vivo
Text: as §1
Kits: The kits for total cholesterol (TC), triglyceride (TG), and high density lipoprotein cholesterol (HDL-C) were provided by SYSMEX, and the kits for low density lipoprotein cholesterol (LDL-C) were provided by Shanghai Kehua Bio-engineering Co., Ltd.
as §2
as §3, with “pm of” for “pm on”, “h). At” for “h). On”, “TC, TG,” for “TC,”
During the administration, feeds with high lipid content were continuously fed to the animals. The animals were fed for 1 week, and were fasted at 4:00 pm of the 7th day. At the 8th day, the animals were anaesthetized with ethyl ether, weighted, and then 0.5 ml blood was collected from vena orbitalis posterior. The blood was anticoagulated with heparin, and was centrifugated at 5000 rpm for 10 min. The blood plasma was taken, and the levels of TC, TG, HDL-C, and LDL-C in blood plasma were determined using automatic biochemistry analyzer.
as §4

[4] = Solubility in water (remark on the test drugs); assay type: physicochemical; settings: formulated with 20% solutol
[5] = background statement; cited from earlier work
[6] = 40 mg/kg intragastric, 1 week, high-lipid feed continued, blood plasma, x±s, asterisks = P vs before administration
[7] = 40 mg/kg, t test after vs before administration
[8] = baseline of the group before administration, high-lipid feed 2 weeks, blood plasma, x±s, 6 animals
[9] = baseline of the group before administration, high-lipid feed, blood plasma, x±s, 6 animals

## CC(C)OC(=O)C(C)(C)Oc1ccc(C(F)(F)c2ccc(Cl)cc2)cc1 [HS003-004, isopropyl 2-(4-((4-chlorophenyl)difluoromethyl)phenoxy)-2-methylpropionate]
[1]; 40 mg/kg
  regulating effects on the levels of blood lipid (conclusion from table 2): tend to the effects of significantly decreasing TG, TC, and LDL-C
[1]; [6]
  HDL-C, after administration: 3.7 ± 0.31
  LDL-C, after administration: 1.27 ± 0.26
  TC, after administration: 9.16 ± 1.22
  TG, after administration: 1.30 ± 0.23
[1]; [7]
  effect on HDL-C, in comparison with the results before administration (in words): increases
  effect on TC, in comparison with the results before administration (in words): significantly decreases
  effect on TG, in comparison with the results before administration (in words): significantly decreases
[2]; 40 mg/kg
  blood lipid-regulating effects (conclusion from table 3): excellent blood lipid-regulating effects
  effect on HDL-C, in comparison with the results before administration (in words): increases
  effect on LDL-C, in comparison with the results before administration (in words): significantly decreases
  effect on TC, in comparison with the results before administration (in words): significantly decreases
[2]; [6]
  HDL-C, after administration: 1.83 ± 0.18
  LDL-C, after administration: 1.97 ± 0.66
  TC, after administration: 9.86 ± 0.83
[2]; 40 mg/kg, fenofibrate 40 mg/kg
  therapeutic effect compared with fenofibrate (conclusion from table 3): outstanding therapeutic effects, and are superior to fenofibrate
[2]; blood plasma, x±s
  HDL-C, before administration: 1.61 ± 0.21
  LDL-C, before administration: 3.26 ± 1.58
  TC, before administration: 13.82 ± 2.69
[3]; 40 mg/kg
  blood lipid-regulating effects (conclusion from table 4): excellent blood lipid-regulating effects
[3]; [6]
  HDL-C, after administration: 3.16 ± 0.24
  LDL-C, after administration: 1.86 ± 0.78
  TC, after administration: 9.49 ± 1.82
  TG, after administration: 2.22 ± 1.61
[3]; 40 mg/kg, fenofibrate 40 mg/kg
  therapeutic effect compared with fenofibrate (conclusion from table 4): outstanding therapeutic effects, and are superior to fenofibrate
[3]; [7]
  effect on HDL-C, in comparison with the results before administration (in words): increases
  effect on LDL-C, in comparison with the results before administration (in words): significantly decreases
  effect on TC, in comparison with the results before administration (in words): significantly decreases
  effect on TG, in comparison with the results before administration (in words): significantly decreases
[3]; [8]
  HDL-C, before administration: 2.54 ± 0.22
  LDL-C, before administration: 3.54 ± 0.71
  TC, before administration: 12.68 ± 1.8
  TG, before administration: 3.94 ± 1.07
[4]
  solubility in water: insoluble

## fenofibrate [reference compound]
[1]; [6]
  HDL-C, after administration: 4.11 ± 0.15
  LDL-C, after administration: 1.15 ± 0.3
  TG, after administration: 1.13 ± 0.47
[1]; [7]
  effect on HDL-C, in comparison with the results before administration (in words): increases
  effect on TG, in comparison with the results before administration (in words): significantly decreases
[1]; [9]
  HDL-C, before administration: 3.16 ± 0.24
  LDL-C, before administration: 1.35 ± 0.25
  TG, before administration: 2.39 ± 1
[2]; [6]
  LDL-C, after administration: 2.45 ± 0.8
[2]; 40 mg/kg
  effect on HDL-C, in comparison with the results before administration (in words): increases
  effect on LDL-C, in comparison with the results before administration (in words): significantly decrease
  effect on TC, in comparison with the results before administration (in words): significantly decrease
[2]; blood plasma, x±s
  HDL-C, before administration: 1.46 ± 0.29
  LDL-C, before administration: 4.24 ± 1.51
  TC, before administration: 13.74 ± 2.71
[5]
  adverse effects to gastrointestinal tract: significant adverse effects to gastrointestinal tract
